Data from US9090600B2, “Fungicidal 4-substituted-3-{phenyl[(heterocyclylmethoxy)imino]methyl}-1,2,4-oxadizol-5(4H)-one derivatives” (BAYER INTELLECTUAL PROPERTY GMBH, priority 2011, dated 2015).
Marks after values point to notes of the source that are not given here.

Assays:
Phytophthora infestans = assay type: in vivo; details: tomato plants, spray, 500 ppm, grading 5 days after contamination
[1] = pH 2.7

Cn1c(C(=NOCc2cccc(NC(=O)CCCC3CCCCC3)n2)c2ccccc2)noc1=O [Example 267]
Eff. % (Phytophthora infestans): 97%
LogP [1]: 5.14 [a]

CC(C)COC(=O)Nc1cccc(CO/N=C(/c2ccccc2)c2noc(=O)n2C)n1 [Example 225]
Eff. % (Phytophthora infestans): 99%
LogP [1]: 4.01 [a]

Cn1c(/C(=N\OCc2cccc(NC(=O)c3ccc(Br)cc3)n2)c2ccccc2)noc1=O [Example 187]
Eff. % (Phytophthora infestans): 80%
LogP [1]: 4.14 [a]

Cn1c(C(=NOCc2csc(NC(=O)c3ccccc3)n2)c2ccccc2)noc1=O [Example 257]
Eff. % (Phytophthora infestans): 100%
LogP [1]: 3.44 [a]

Cn1c(/C(=N\OCc2cccc(NC(=O)CC34CC5CC(CC(C5)C3)C4)n2)c2ccccc2)noc1=O [Example 146]
Eff. % (Phytophthora infestans): 93%
LogP [1]: 5.08 [a]

CCCCCCCCC(=O)Nc1cccc(CO/N=C(/c2ccccc2)c2noc(=O)n2C)n1 [Example 98]
Eff. % (Phytophthora infestans): 99%
LogP [1]: 5.11 [a]

COc1ccccc1CCC(=O)Nc1cccc(CO/N=C(/c2ccccc2)c2noc(=O)n2C)n1 [Example 184]
Eff. % (Phytophthora infestans): 99%
LogP [1]: 3.87 [a]

CCCC(C)C(=O)Nc1cccc(CO/N=C(/c2cccc(OC)c2)c2noc(=O)n2C)n1 (stereo not shown) [Example 328]
Eff. % (Phytophthora infestans): 75%
LogP [1]: 3.87 [a]

Cn1c(/C(=N\OCc2cccc(NC(=O)OCCc3ccccc3Cl)n2)c2ccccc2)noc1=O [Example 106]
Eff. % (Phytophthora infestans): 75%
LogP [1]: 4.56 [a]

Cc1ccc(CCOC(=O)Nc2cccc(CO/N=C(/c3ccccc3)c3noc(=O)n3C)n2)cc1 [Example 369]
Eff. % (Phytophthora infestans): 70%
LogP [1]: 4.53 [a]

Cn1c(/C(=N\OCc2csc(NC(=O)c3ccccc3Br)n2)c2ccccc2)noc1=O [Example 81]
Eff. % (Phytophthora infestans): 78%
LogP [1]: 3.51 [a]

Cn1c(/C(=N\OCc2cccc(NC(=O)Cc3ccccc3Br)n2)c2ccccc2)noc1=O [Example 335]
Eff. % (Phytophthora infestans): 99%
LogP [1]: 3.85 [a]

CC(Oc1ccccc1)C(=O)Nc1cccc(CO/N=C(/c2ccccc2)c2noc(=O)n2C)n1 (stereo not shown) [Example 232]
Eff. % (Phytophthora infestans): 100%
LogP [1]: 3.96 [a]

Cn1c(/C(=N\OCc2cccc(NC(=O)COc3ccccc3)n2)c2ccccc2)noc1=O [Example 313]
Eff. % (Phytophthora infestans): 100%
LogP [1]: 3.73 [a]

Cn1c(/C(=N\OCc2csc(NC(=O)OC3CCCC3)n2)c2ccccc2)noc1=O [Example 103]
Eff. % (Phytophthora infestans): 80%
LogP [1]: 3.76 [a]

COc1ccc(CCOC(=O)Nc2cccc(CO/N=C(/c3ccccc3)c3noc(=O)n3C)n2)cc1 [Example 310]
Eff. % (Phytophthora infestans): 70%
LogP [1]: 4.08 [a]

COC(C(=O)Nc1cccc(CO/N=C(/c2ccccc2)c2noc(=O)n2C)n1)c1ccccc1 (stereo not shown) [Example 218]
Eff. % (Phytophthora infestans): 80%
LogP [1]: 3.85 [a]

Cn1c(/C(=N\OCc2cccc(NC(=O)c3ccccc3F)n2)c2ccccc2)noc1=O [Example 114]
Eff. % (Phytophthora infestans): 100%
LogP [1]: 3.73 [a]

CCC(C)C(=O)Nc1cccc(CO/N=C(/c2ccccc2)c2noc(=O)n2C)n1 (stereo not shown) [Example 132]
Eff. % (Phytophthora infestans): 97%
LogP [1]: 3.41 [a]

Cc1ccc(C(=O)Nc2cccc(CO/N=C(/c3ccccc3)c3noc(=O)n3C)n2)o1 [Example 345]
Eff. % (Phytophthora infestans): 99%
LogP [1]: 3.46 [a]

CC(=O)OC(C)(C)C(=O)Nc1cccc(CO/N=C(/c2ccccc2)c2noc(=O)n2C)n1 [Example 367]
Eff. % (Phytophthora infestans): 100%
LogP [1]: 3.15 [a]

Cn1c(/C(=N\OCc2csc(NC(=O)c3cccc(Br)c3)n2)c2ccccc2)noc1=O [Example 289]
Eff. % (Phytophthora infestans): 98%
LogP [1]: 4.04 [a]

C=CCCOC(=O)Nc1cccc(CO/N=C(/c2ccccc2)c2noc(=O)n2C)n1 [Example 363]
Eff. % (Phytophthora infestans): 99%
LogP [1]: 3.71 [a]

Cn1c(/C(=N\OCc2csc(NC(=O)COc3ccc(Cl)cc3Cl)n2)c2ccccc2)noc1=O [Example 123]
Eff. % (Phytophthora infestans): 98%
LogP [1]: 4.23 [a]

COc1cccc(C(=NOCc2cccc(NC(=O)C(C)(C)C)n2)c2noc(=O)n2C)c1 [Example 407]
Eff. % (Phytophthora infestans): 95%
LogP [1]: 3.55 [a]

CCCCCOC(=O)Nc1cccc(CO/N=C(/c2ccccc2)c2noc(=O)n2CC)n1 [Example 300]
Eff. % (Phytophthora infestans): 100%
LogP [1]: 4.72 [a]

CCn1c(/C(=N\OCc2cccc(NC(=O)OC3CCCCC3)n2)c2ccccc2)noc1=O [Example 61]
Eff. % (Phytophthora infestans): 100%
LogP [1]: 4.77 [a]

Cn1c(/C(=N\OCc2cccc(NC(=O)c3cccc(Oc4ccccc4)c3)n2)c2ccccc2)noc1=O [Example 329]
Eff. % (Phytophthora infestans): 93%
LogP [1]: 4.61 [a]

CCCOC(=O)Nc1cccc(CO/N=C(/c2ccccc2)c2noc(=O)n2C)n1 [Example 33]
Eff. % (Phytophthora infestans): 100%
LogP [1]: 3.62 [a]

Cn1c(/C(=N\OCc2cccc(NC(=O)CCCc3ccccc3)n2)c2ccccc2)noc1=O [Example 377]
Eff. % (Phytophthora infestans): 99%
LogP [1]: 4.04 [a]

Cc1cccc(C(=NOCc2cccc(NC(=O)OCCc3ccccc3)n2)c2noc(=O)n2C)c1 [Example 272]
Eff. % (Phytophthora infestans): 88%
LogP [1]: 4.49 [a]

CCC(C(=O)Nc1cccc(CO/N=C(/c2ccccc2)c2noc(=O)n2C)n1)c1ccccc1 (racemic) [Example 386]
Eff. % (Phytophthora infestans): 80%
LogP [1]: 4.23 [a]

Cn1c(/C(=N\OCc2cccc(NC(=O)C3CCCC3)n2)c2ccccc2)noc1=O [Example 388]
Eff. % (Phytophthora infestans): 100%
LogP [1]: 3.62 [a]

CCCCCOC(=O)Nc1cccc(CO/N=C(/c2cccc(C)c2)c2noc(=O)n2C)n1 [Example 224]
Eff. % (Phytophthora infestans): 93%
LogP [1]: 4.78 [a]

Cc1cccc(/C(=N/OCc2cccc(N(C(=O)OC(C)(C)C)C(=O)OC(C)(C)C)n2)c2noc(=O)n2C)c1 [Example 87]
Eff. % (Phytophthora infestans): 95%
LogP [1]: 4.77 [a]

Cn1c(/C(=N\OCc2cccc(NC(=O)C3(C)CC3)n2)c2ccccc2)noc1=O [Example 137]
Eff. % (Phytophthora infestans): 98%
LogP [1]: 3.31 [a]

Cc1cccc(/C(=N/OCc2cccc(NC(=O)OC(C)(C)C)n2)c2noc(=O)n2C)c1 [Example 142]
Eff. % (Phytophthora infestans): 100%
LogP [1]: 4.34 [a]

CC(C)CCOC(=O)Nc1cccc(CO/N=C(/c2ccccc2)c2noc(=O)n2C)n1 [Example 182]
Eff. % (Phytophthora infestans): 100%
LogP [1]: 4.39 [a]

Cn1c(/C(=N\OCc2cccc(NC(=O)CCc3ccc(F)cc3)n2)c2ccccc2)noc1=O [Example 301]
Eff. % (Phytophthora infestans): 100%
LogP [1]: 3.81 [a]

Cn1c(/C(=N\OCc2cccc(NC(=O)C3CCCCC3)n2)c2ccccc2)noc1=O [Example 147]
Eff. % (Phytophthora infestans): 100%
LogP [1]: 3.92 [a]

Cc1ccoc1C(=O)Nc1cccc(CO/N=C(/c2ccccc2)c2noc(=O)n2C)n1 [Example 170]
Eff. % (Phytophthora infestans): 100%
LogP [1]: 3.71 [a]

Cn1c(/C(=N\OCc2cccc(NC(=O)CCCCCBr)n2)c2ccccc2)noc1=O [Example 374]
Eff. % (Phytophthora infestans): 100%
LogP [1]: 3.85 [a]

Cn1c(/C(=N\OCc2cccc(NC(=O)c3ccc(Oc4ccccc4)cc3)n2)c2ccccc2)noc1=O [Example 357]
Eff. % (Phytophthora infestans): 92%
LogP [1]: 4.58 [a]

CCCCCCCC(=O)Nc1cccc(CO/N=C(/c2ccccc2)c2noc(=O)n2C)n1 [Example 32]
Eff. % (Phytophthora infestans): 100%
LogP [1]: 4.71 [a]

CCCCCCOC(=O)Nc1cccc(CO/N=C(/c2ccccc2)c2noc(=O)n2C)n1 [Example 107]
Eff. % (Phytophthora infestans): 100%
LogP [1]: 4.85 [a]

Cn1c(/C(=N\OCc2cccc(NC(=O)Oc3ccccc3)n2)c2ccccc2)noc1=O [Example 138]
Eff. % (Phytophthora infestans): 97%
LogP [1]: 3.73 [a]

Cn1c(/C(=N\OCc2cccc(NC(=O)OCC(C)(C)c3ccccc3)n2)c2ccccc2)noc1=O [Example 79]
Eff. % (Phytophthora infestans): 88%
LogP [1]: 4.71 [a]

CC(C)=CCCC(C)CC(=O)Nc1cccc(CO/N=C(/c2ccccc2)c2noc(=O)n2C)n1 (stereo not shown) [Example 235]
Eff. % (Phytophthora infestans): 100%
LogP [1]: 4.88 [a]

CC(C)COC(=O)Nc1nc(CO/N=C(/c2ccccc2)c2noc(=O)n2C)cs1 [Example 286]
Eff. % (Phytophthora infestans): 97%
LogP [1]: 3.71 [a]

Cc1ccccc1OC(C)C(=O)Nc1nc(CO/N=C(/c2ccccc2)c2noc(=O)n2C)cs1 (stereo not shown) [Example 82]
Eff. % (Phytophthora infestans): 99%
LogP [1]: 4.12 [a]

COc1ccccc1C(=O)Nc1nc(CO/N=C(/c2ccccc2)c2noc(=O)n2C)cs1 [Example 91]
Eff. % (Phytophthora infestans): 85%
LogP [1]: 3.71 [a]

Cn1c(/C(=N\OCc2cccc(NC(=O)c3ccccc3I)n2)c2ccccc2)noc1=O [Example 331]
Eff. % (Phytophthora infestans): 98%
LogP [1]: 3.76 [a]

COc1ccccc1OC(C)C(=O)Nc1nc(CO/N=C(/c2ccccc2)c2noc(=O)n2C)cs1 (stereo not shown) [Example 219]
Eff. % (Phytophthora infestans): 85%
LogP [1]: 3.89 [a]

Cc1ccc(OCC(=O)Nc2nc(CO/N=C(/c3ccccc3)c3noc(=O)n3C)cs2)cc1 [Example 229]
Eff. % (Phytophthora infestans): 100%
LogP [1]: 3.8 [a]

Cn1c(/C(=N\OCc2cccc(NC(=O)c3cc(F)cc(F)c3)n2)c2ccccc2)noc1=O [Example 202]
Eff. % (Phytophthora infestans): 98%
LogP [1]: 3.92 [a]

Cn1c(/C(=N\OCc2csc(NC(=O)COc3ccc(Br)cc3)n2)c2ccccc2)noc1=O [Example 55]
Eff. % (Phytophthora infestans): 100%
LogP [1]: 3.94 [a]

Cn1c(/C(=N\OCc2cccc(NC(=O)OCCc3ccccc3F)n2)c2ccccc2)noc1=O [Example 186]
Eff. % (Phytophthora infestans): 83%
LogP [1]: 4.21 [a]

COc1ccccc1CCOC(=O)Nc1cccc(CO/N=C(/c2ccccc2)c2noc(=O)n2C)n1 [Example 175]
Eff. % (Phytophthora infestans): 93%
LogP [1]: 4.31 [a]

Cn1c(C(=NOCc2cccc(N(C(=O)OC(C)(C)C)C(=O)OC(C)(C)C)n2)c2cccc(F)c2)noc1=O [Example 261]
Eff. % (Phytophthora infestans): 100%
LogP [1]: 4.51 [a]

Cc1ccc(C(=O)Nc2cccc(CO/N=C(/c3ccccc3)c3noc(=O)n3C)n2)cc1 [Example 144]
Eff. % (Phytophthora infestans): 95%
LogP [1]: 3.85 [a]

COc1cccc(/C(=N/OCc2cccc(NC(=O)CC(C)C)n2)c2noc(=O)n2C)c1 [Example 362]
Eff. % (Phytophthora infestans): 71%
LogP [1]: 3.46 [a]

CCCC(=O)Nc1cccc(CON=C(c2ccccc2)c2noc(=O)n2C)n1 [Example 266]
Eff. % (Phytophthora infestans): 100%
LogP [1]: 3.13 [a]
